What all share (assay type): in vivo
In assay [1] the test system is Commelina benghalensis (tropical spiderwort, COMBE). Put plainly: Postemergence herbicidal weed control, fluroxypyr-meptyl and diclosulam, greenhouse trials (Table 1). How it is done: (§1) Field trials were conducted using standard herbicide small plot research methodology. Plots varied from 3×3.3 meter (m) to 4.5×10 m (width×length) with 4 replicates per treatment. The crops used in the field trials were grown using normal cultural practices for land preparation, fertilization, seeding and maintenance to ensure good growth of the crop and the weeds.
(§2) All treatments in the field trials were applied using either pressurized air or carbon dioxide (CO2) backpack or bicycle sprayers calibrated to apply 100-187 L/ha spray volume. Flat Fan spray nozzles were used in all trials, with water as the diluent applied at 275-300 kilopascals (kPa). Weed sizes at application ranged from 10 to 40 cm tall. Commercially available products of fluroxypyr-meptyl (STARANE™, 180 and 333 g ae/L EC), diclosulam (SPIDER® 84WG), and thifensulfuron-methyl (HARMONY® 75WG) were mixed in water at appropriately formulated product rates to achieve the desired rates based on a unit area of application (hectare) to achieve the desired rates as shown. No adjuvants were tank-mixed with any treatments applied in the field trials. Treatments were rated at 14-26 days after application as compared to the untreated control plants. Visual weed control was scored on a scale of 0 to 100 percent where 0 corresponds to no injury and 100 corresponds to complete kill.
The treated plots and control plots were rated blind at various intervals after application. Ratings were reported on a Percent (%) Visual Control basis, where 0 corresponds to no visual effect/weed control and 100 corresponds to complete kill of the target weeds.
Colby's equation was used to determine the herbicidal effects expected from the mixtures (Colby, S. R. Calculation of the synergistic and antagonistic response of herbicide combinations. Weeds 196715, 20-22). A t-test (alpha=0.05) between Colby predictions and observed combinations was used to test for significant differences indicating synergy or antagonism. The results presented in the Tables were significant according to the described criteria.
The following equation was used to calculate the expected activity of mixtures containing two active ingredients, A and B: Expected=A+B−(A×B/100) • A=observed efficacy of active ingredient A at the same concentration as used in the mixture; • B=observed efficacy of active ingredient B at the same concentration as used in the mixture.

Assay [2] relates to Chenopodium album (common lambsquarters, CHEAL). Put plainly: Postemergence herbicidal weed control, fluroxypyr-meptyl and cloransulam-methyl, field trials (Table 2). How it is done:
(§3) Seeds of the desired test plant species were planted in a peat-based potting soil, Metro-Mix 360® in plastic pots with a surface area of 128 square centimeters (cm^2). Metro-Mix 360® consists of formulated Canadian sphagnum peat moss, coarse perlite, bark ash, a starter nutrient charge (with gypsum), a slow-release nitrogen and dolomitic limestone. The plants were grown for 7-19 days in a greenhouse with an approximate 14-hour (h) photoperiod which was maintained at about 29° C. during the day and 26° C. during the night. Nutrients and water were added on a regular basis and supplemental lighting was provided with overhead metal halide 1000-Watt lamps as necessary. The plants were treated with postemergence foliar applications when they reached the third to fourth true leaf stage. All treatments were applied using a randomized complete block trial design, with 4 replications per treatment.
(§4) Treatments consisted of the compounds as listed in Tables 1 to 4, each compound applied alone and in combination. Commercially formulated products of fluroxypyr-meptyl (STARANE™, 333 grams acid equivalent per liter (g ae/L) EC), diclosulam (SPIDER® 84WG), cloransulam-methyl (FIRSTRATE™ 84WG), chlorimuron-ethyl (CLASSIC® 25WG) and thifensulfuron-methyl (HARMONY® 50SG). Formulated amounts of fluroxypyr-meptyl, diclosulam, cloransulam-methyl, chlorimuron-ethyl and thifensulfuron-methyl were placed in 60 milliliter (mL) glass vials and dissolved in a volume of 30 or 60 mL of a water solution containing Agri-dex crop oil concentrate in a 1% volume per volume (v/v) ratio. Compound requirements are based upon either a 30- or a 60-mL application volume at a rate of 200 liters per hectare (L/ha). Spray solutions of the mixtures were prepared by adding the stock solutions to the appropriate amount of dilution solution to form either a 30- or a 60-mL spray solution with active ingredients in single and two-way combinations. Formulated compounds were applied to the plant material with an overhead Generation III Research Sprayer manufactured by DeVries Manufacturing in Hollandale, Minn., USA. The track sprayer was equipped with an 8003E nozzle calibrated to deliver 200 L/ha at a spray height of 18 inches (43 centimeters (cm)) above average plant canopy.
(§5) The treated plants and untreated control plants were placed in a greenhouse as described above and watered by sub-irrigation to prevent wash-off of the test compounds.
(§6) Treatments were rated at 7 to 21 days after application (DAA) as compared to the untreated control plants. Visual weed control was scored on a scale of 0 to 100 percent where 0 corresponds to no injury and 100 corresponds to complete kill.
as §1
as §2, with “Treatments were rated at 14-26 days after application as compared to the untreated control plants.” left out, “kill. […]” for “kill.”

In assay [3] the test system is Abutilon theophrasti (velvetleaf, ABUTH). As to the kind of experiment: Postemergence herbicidal weed control, fluroxypyr-meptyl and thifensulfuron-methyl, field trials (Table 4). Particulars: 14DAA1, 100 g ae/ha. The protocol:
as §3, §4, §5, §6, §1
(§7) All treatments in the field trials were applied using either pressurized air or carbon dioxide (CO2) backpack or bicycle sprayers calibrated to apply 100-187 L/ha spray volume. Flat Fan spray nozzles were used in all trials, with water as the diluent applied at 275-300 kilopascals (kPa). Weed sizes at application ranged from 10 to 40 cm tall. […]

In assay [4] the test system is Amaranthus palmeri S. Wats. (Palmer amaranth, AMAPA). Described as above. Conditions: 7DAA1, 50 g ae/ha. The protocol: as §3, §4, §5, §6, §1, §7

As to `CCCCCCC(C)OC(=O)COc1nc(F)c(Cl)c(N)c1Cl` (stereo not shown) [Fluroxypyr-meptyl, fluroxypyr-methylheptyl ester], the “Fluroxypyr-meptyl Mean % weed control” value in assay [1] (14DAA1, 200 g ae/ha) turned out to be 27.5%; in assay [1] (26DAA1, 200 g ae/ha) it was 25.0%; in assay [2] (8DAA1, 25 g ae/ha), 33.3%; in assay [2] (14DAA1, 25 g ae/ha), 10.0%; in assay [2] (14DAA1, 100 g ae/ha) it was 33.3%; in assay [2] (21DAA1, 25 g ae/ha), 18.3%. The “Fluroxypyr-meptyl Mean % weed control” value stood at 18.3% in assay [2] (21DAA1, 50 g ae/ha); 21.0% in assay [2] (21DAA1, 100 g ae/ha); 80.8% in assay [3]; 48.8% in assay [4].

For the origin of these results see patent US9737073B2, “Herbicidal weed control from combinations of fluroxypyr and ALS inhibitors” (Dow AgroSciences LLC, priority 2014, dated 2017).
